Data published in patent publication US20070254906A1 (DarPharma, Inc., priority 2004, published 2007).
Entries after “also recorded” stand apart in the source; their conditions may differ. Counter-ions that a name gives are not always drawn. Like-named read-outs stand apart in the source and are kept apart here. Each block holds one compound with its values, some of them ahead of it.

Key:
[1] = biological target: 40 binding sites (other than the D1 site); conditions: inactive; Mottola et al. (1992); read-out: IC50 at about 40 different receptor binding sites; cited from earlier work
[2] = Half-life, duration of action and oral absorption; format: in vivo; conditions: for half-life: intravenous, read-out: half-life when given intravenously
[3] = biological target: alpha2 adrenergic receptors; test: Binding at alpha2 adrenergic receptors (screen); conditions: Method Example 2 text
[4] = test system: injured rat lung; test: Fluid resorption in rat model of lung injury; format: in vivo; conditions: intravenous administration, listed as DHX, hydrochloride
[5] = test system: rabbit model of lung injury; test: Fluid resorption in rabbit model of lung injury; format: in vivo; conditions: intravenous route
[6] = test system: dopamine release and reuptake; test: Dopamine release and reuptake
[7] = biological target: dopamine D1 receptor; conditions: read-out: IC50, binding to dopamine D1 receptor; Mottola et al. (1992); cited from earlier work
[8] = biological target: 40 binding sites (other than the D1 site); test: Screen at about 40 receptor binding sites; conditions: inactive at all except D2 and alpha2
[9] = biological target: alpha2 adrenergic receptors; conditions: Mottola et al. (1992); cited from earlier work
[10] = test system: adenylate cyclase; test: Stimulation of adenylate cyclase by dihydrexidine; conditions: for efficacy in stimulating adenylate cyclase: compared with dopamine, rat, monkey, and human brain tissue, hydrochloride
[11] = test system: D1 receptors; test: Binding affinity at rat brain striatal D1 receptors (3H-SCH 23390); conditions: for D1:D2 Selectivity: rat brain striatal homogenates
[12] = test system: D2 receptors; format: binding, rat
[13] = biological target: D1 receptors (Rattus norvegicus, UniProt P18901); test: Binding affinity at rat brain striatal D1 receptors (3H-SCH 23390); conditions: read-out: D1 Affinity (K0.5) ± SEM; rat brain striatal homogenates, 3H-SCH 23390
D1 receptors (Rattus norvegicus, UniProt P18901), sequence (P18901 whole entry): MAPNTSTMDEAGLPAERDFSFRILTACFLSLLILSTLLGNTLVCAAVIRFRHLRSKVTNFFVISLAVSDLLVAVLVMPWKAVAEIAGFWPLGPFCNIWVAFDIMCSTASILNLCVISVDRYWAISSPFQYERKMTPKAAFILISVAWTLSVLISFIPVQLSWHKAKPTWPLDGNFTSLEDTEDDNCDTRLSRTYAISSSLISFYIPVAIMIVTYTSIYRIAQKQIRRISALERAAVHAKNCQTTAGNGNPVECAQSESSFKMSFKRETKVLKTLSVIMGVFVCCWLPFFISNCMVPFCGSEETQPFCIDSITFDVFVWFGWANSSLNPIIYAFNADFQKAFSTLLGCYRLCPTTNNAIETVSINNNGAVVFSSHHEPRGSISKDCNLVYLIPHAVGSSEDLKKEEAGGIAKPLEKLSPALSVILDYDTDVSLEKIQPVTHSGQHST

[14] = biological target: T1, D2 receptors (Rattus norvegicus, UniProt P61169); format: binding; conditions: rat brain striatal homogenates, 3H-spiperone; read-out: D2 Affinity (K0.5) ± SEM
T1 construct: other: rat brain striatal homogenates, 3H-spiperone
T1 sequence (P61169 whole entry): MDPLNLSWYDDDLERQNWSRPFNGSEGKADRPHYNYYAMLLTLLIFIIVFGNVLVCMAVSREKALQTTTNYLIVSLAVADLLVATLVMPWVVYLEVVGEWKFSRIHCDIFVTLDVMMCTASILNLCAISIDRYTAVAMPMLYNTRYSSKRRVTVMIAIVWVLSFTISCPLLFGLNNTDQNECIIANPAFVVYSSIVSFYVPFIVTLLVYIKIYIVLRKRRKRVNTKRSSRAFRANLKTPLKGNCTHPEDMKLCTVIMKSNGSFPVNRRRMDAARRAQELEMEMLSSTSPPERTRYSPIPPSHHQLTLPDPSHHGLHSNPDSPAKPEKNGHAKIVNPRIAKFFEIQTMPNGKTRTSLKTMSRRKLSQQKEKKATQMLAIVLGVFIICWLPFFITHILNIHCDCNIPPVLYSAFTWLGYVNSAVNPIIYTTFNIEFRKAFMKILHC

[15] = biological target: D1 receptor (Homo sapiens, UniProt P21728); test: Alveolar fluid resorption in transgenic mice overexpressing the D1 receptor; conditions: mice with D1 receptor overexpressed by electroporation
D1 receptor, sequence (P21728 whole entry, the tested form may be a part): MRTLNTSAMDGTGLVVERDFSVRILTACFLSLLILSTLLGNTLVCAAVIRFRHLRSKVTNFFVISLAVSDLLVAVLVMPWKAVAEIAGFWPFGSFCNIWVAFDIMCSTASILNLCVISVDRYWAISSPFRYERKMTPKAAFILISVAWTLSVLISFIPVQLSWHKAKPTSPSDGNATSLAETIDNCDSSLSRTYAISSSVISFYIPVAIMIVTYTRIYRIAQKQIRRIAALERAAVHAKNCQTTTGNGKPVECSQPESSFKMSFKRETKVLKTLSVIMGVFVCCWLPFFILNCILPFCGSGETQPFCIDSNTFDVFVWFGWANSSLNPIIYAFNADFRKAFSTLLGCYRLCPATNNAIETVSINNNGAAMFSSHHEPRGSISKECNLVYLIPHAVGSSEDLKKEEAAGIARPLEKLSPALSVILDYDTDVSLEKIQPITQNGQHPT

[16] = test system: alveolar fluid resorption; conditions: isolated, perfused rat lungs; cited from earlier work
[17] = test system: adenylate cyclase; test: Activation of adenylate cyclase in rat brain striatum; format: biochemical; conditions: compared with dopamine
[18] = test system: lung liquid clearance; conditions: cited from earlier work
[19] = background statement; cited from earlier work

melting point: 298 to 302 °C (dec.)
Structure (SMILES): Br.Oc1ccc2c(c1O)Oc1cccc3c1C2CNC3 (centres unmarked)

Structure (SMILES): Oc1ccc2c(c1O)Cc1cccc3c1C2CNC3 (centres unmarked) (as salt: hydrobromid) [dinapsoline, 8,9-Dihydroxy-2,3,7,11b-tetrahydro-1H-napth[1,2,3-de]isoquinoline]
melting point: 258 °C (dec.)

Structure (SMILES): Oc1cc2c(cc1O)[C@H]1c3ccccc3CN[C@@H]1CC2 (racemic) [dihydrexidine, Trans-10,11-dihydroxy-5,6,6a,7,8,12b-hexahydrobenzo[α]phenanthridine hydrochloride]
IC50 [1]: > 10000 nM | half-life ([2]; in vivo): ~30 min | oral absorption / oral bioavailability ([2]; oral administration, listed as DHX, hydrochloride): relatively poor; also recorded: poorly absorbed | half-life ([2]; serum): < 10 min | functional half-life when given subcutaneously ([2]; subcutaneous): about 3 hr | IC50 [3]: ~230 nM | fluid absorption / resorption from injured lung [4]: shown efficacy; also recorded: shown to induce fluid resorption | fluid resorption in lung injury model [5]: shown to induce fluid resorption | releasing dopamine or blocking its reuptake [6]: inactive | IC50 [7]: ~10 nM | IC50 [8]: > 10000 nM | IC50 [9]: 230 nM | efficacy in stimulating adenylate cyclase [10]: full efficacy | efficacy in stimulating adenylate cyclase ([10]; listed as DHX): as efficacious as dopamine

Structure (SMILES): Cc1ccc2c(c1)[C@H]1c3cc(O)c(O)cc3CC[C@@H]1NC2 (relative stereo) (as salt: hydrochloride) [Compound 6b, Trans-2-methyl-10,11-dihydroxy-5,6,6a,7,8,12b-hexahydrobenzo [α]phenanthridine hydrochloride]
melting point: 190 °C (dec.)

Structure (SMILES): Cc1ccc2c(c1)CN[C@H]1CCc3cc(O)c(O)cc3[C@H]21 (relative stereo) (as salt: hydrochloride) [Compound 6c, Trans-3-methyl-10,11-dihydroxy-5,6,6a,7,8, 12b-hexahydrobenzo[α]phenanthridine hydrochloride]
melting point: 190 °C (dec.)

Structure (SMILES): Cc1ccc2c(c1)CN[C@H]1CCc3cc(O)c(O)cc3[C@H]21 (relative stereo) [Compound 6c, Trans-3-methyl-10,11-dihydroxy-5,6,6a,7,8, 12b-hexahydrobenzo[α]phenanthridine hydrochloride]
D1 potency and efficacy relative to dihydrexidine [11]: comparable to dihydrexidine | D1:D2 Selectivity [11]: 6 | D2 potency relative to dihydrexidine [12]: greater D2 potency

Structure (SMILES): Cl.Oc1cc2c(cc1O)[C@@H]1c3cc(Cc4ccccc4)ccc3CN[C@H]1CC2 (relative stereo) [Compound 6e, Trans-2-benzyl-10,11-dihydroxy-5,6,6a,7,8,12b-hexahydrobenzo[α]phenanthridine hydrochloride]
Ki [13]: 290 nM | D1:D2 Selectivity [11]: 0.6 | Ki [14]: 185 nM

melting point: 259 to 264 °C (dec.)
Structure (SMILES): CCCN1Cc2cccc3c2C(C1)c1ccc(O)c(O)c1O3 (centres unmarked) [Compound 16c, N-propyl-8,9-dihydroxy-1,2,3,11b-tetrahydrochromeno[4,3,2-de]isoquinoline]

Structure (SMILES): CN1CCc2cc(Cl)c(O)cc2C(c2ccccc2)C1 (centres unmarked) [SCH 23390]
blockade of the increase in alveolar fluid resorption [15]: blocked | blockade of the dopamine effect on alveolar fluid resorption [16]: blocked | blockade of dihydrexidine stimulation of adenylate cyclase ([10]; D1 antagonist): blocked

Structure (SMILES): Oc1ccc2c(c1O)Cc1cccc3c1C2CNC3 (centres unmarked) [dinapsoline, 8,9-Dihydroxy-2,3,7,11b-tetrahydro-1H-napth[1,2,3-de]isoquinoline]
efficacy in activating adenylate cyclase in rat brain striatum [17]: as effective as dopamine

Structure (SMILES): NCCc1ccc(O)c(O)c1 [dopamine]
increase in lung liquid clearance ([18]; dopamine instilled at 10-5): 131% | increase in lung liquid clearance ([18]; dopamine instilled at 10-6): 47% | increase in lung liquid clearance ([18]; dopamine instilled at 10-8): 27% | increase in alveolar fluid resorption [16]: 98%

Structure (SMILES): Oc1ccc(C2CNCCc3c2cc(O)c(O)c3Cl)cc1 (centres unmarked) [fenoldopam]
half-life [19]: about 15 minutes

Structure (SMILES): CCN1CCCC1CNC(=O)c1cc(S(N)(=O)=O)ccc1OC (centres unmarked) [sulpiride]
blockade of the dopamine effect on alveolar fluid resorption [16]: not
